Experimental data from patent US10854312B2, “Selective peptide antagonists” (BIONIZ, LLC, priority 2013, dated 2020).
Entries after “also recorded” stand apart in the source; their conditions may differ. No end group written: not given here.

Experiments:
Type in all cases: cell-based
human IL-9 = test: NK92 cell proliferation assay (WST-1), IL-9; conditions: 24 h
Experimental: (§1) Human peripheral blood mononuclear cells were purified by the Ficoll-paque gradient centrifugation (GE-Healthcare) and stimulated by PHA (5 μg ml^−1, Sigma) for 48 h, then expanded with IL-2 (0.5 nM, Peprotech) for 48h, and then depleted of non-T cells by the Pan-T cell negative enrichment Ab cocktails (Miltenyi). The purified T cells were then fasted of IL-2 overnight prior to the proliferation assay by the tetrazolium dye method. Four hundred thousand cells (in 200 μl culture) were incubated with the cytokines and BNZ132-1 at the indicated concentrations for 24 h, and 20 μl WST1 reagent (Clontech) was added to each well. After 12 h incubation, OD450 was measured. The assay was performed in triplicate. […] NK 92 cells were cultured in human IL-2. Cells were washed to withdraw IL-2 for overnight and two hundred thousand cells (in 200 μl volume) were incubated with the indicated concentrations of the cytokine and BNZ132-1 for 24 h before 20 μl WST-1 reagent (Clontech) was added to each well to measure proliferative response. Absorbance at 450 nm was read at 6 h after the addition of the WST-1 dye. The assay was performed in triplicate. The assay was performed in triplicate and the figure represents a typical result out of 5 different HAM-TSP patients.

mouse IL-4 = test: PT-18 proliferation assay (WST-1), IL-4; conditions: murine PT-18 cells, mouse IL-4, BNZ132-1 50 nM, 500 nM, 5 μM
Experimental: (§2) FIG. 6A-FIG. 6E presents inhibitory spectrum of BNZ132-1 over γc- and non-γc-cytokines. […] Neutralizing antibodies against each cytokine (R & D systems, 5 μg ml^−1) were included as controls. After 20 h, the cells were pulsed with WST-1 (Clontech) and OD450 of each well was measured after 6 h. A 19-mer scrambled peptide was used as a negative control at 5 μM. The experiments were conducted in triplicate (applies to all experiments in FIG. 6A-FIG. 6E). The result represents one of at least three independent experiments (applies to all experiments in FIG. 6A-FIG. 6E). […] In PT-18 proliferation assay, PT-18β or PT-18h21Rα cells were withdrawn of mouse IL-3 for 12 h before the experiment. Cells were then incubated with 1 nM of mouse IL-4, mouse IL-9, or mouse IL-21 in the presence or absence of the indicated doses (μM) of BNZ132-1. Neutralizing antibodies to each cytokine (5 μg ml^−1, except for anti-mouse IL-21 polyclonal antibody which was used at 15 μg ml−1) and a scrambled control peptide (5 μM) were included as negative controls. WST-1 assay was conducted as described above. […] In PT-18 h21Rα survival assay, PT-18h21Rα cells are described in the text. […] Both parental and hIL-21Rα positive PT-18 cells were washed and incubated without IL-3 for 12 h before the assay. […] The Y-axis represents the cpm (count per minute) values measured by a β-counter. […]

human IL-21 = test: PT-18 h21Rα survival assay (apoptosis by Annexin V staining), IL-21; conditions: hIL-21Rα-transfected PT-18 cells, 1 nM human IL-21, 5 μM BNZ132-1, PE-Annexin V flow cytometry
Experimental: as §2

mouse IL-9 = test: PT-18 proliferation assay (WST-1), IL-9; conditions: murine PT-18 cells, 1 nM mouse IL-9, BNZ132-1 50 nM, 500 nM, 5 μM
Experimental: as §2

IL-2, -15 and -9 = test: Inhibition of IL-2, -15 and -9 in human NK92 cell line and ex vivo human T cells
Experimental: as §1
Next, the biochemical aspects of the BNZ132-1 inhibition of target cytokines were investigated. […]

human IL-2 = test: NK92 cell proliferation assay (WST-1), IL-2; conditions: 24 h
Experimental: as §1
FIG. 8B, and FIG. 8C show the results of NK92 cell proliferation assay. NK92 cells responded to IL-2 and IL-15. […]

Sequence: IKEFLQRFIHIVQSIINTS [BNZ132-1]
- inhibition of IL-9-induced proliferation of NK92 cells (human IL-9): dose-dependent inhibition
- inhibition of IL-4-induced proliferation of PT-18 cells (mouse IL-4): did not inhibit
- inhibition of IL-21-mediated protection from apoptotic death after IL-3 withdrawal (human IL-21): did not counteract the effect of IL-21; also recorded: not inhibited; also recorded: no inhibition of IL-21
- inhibition of IL-9-induced proliferation of PT-18 cells (mouse IL-9): partially inhibited; also recorded: inhibition of IL-9
- Ki (IL-2, -15 and -9; approximate, from the inhibitory concentrations (Cheng-Prusoff), read-out: binding affinity of BNZ132-1 to target cells): 0.01 to 0.06 µM
- IC50 (IL-2, -15 and -9; human NK92 cell line and ex vivo human T cells, read-out: concentration at which IL-2, -15 and -9 are inhibited): 0.05 to 0.15 µM
- inhibition of IL-2-induced proliferation of NK92 cells (human IL-2): dose-dependent manner; also recorded: dose-dependent inhibition
